Patent US20240226191A1, “COMPOSITIONS AND METHODS FOR TREATING DISEASE” (MICROBA IP PTY LTD, priority 2021, published 2024)
“Also recorded” adds a separate entry of the source.

Key:
male BALB/c mice = assay: Acute murine model of TNBS-induced colitis; format: in vivo, mouse
Procedure: Groups of 5 or 10 male BALB/c mice were used. Mice were fasted overnight (Day 1) before 2,4,6-Trinitrobenzene sulfonic acid solution (TNBS challenge on Day 2. Distal colitis was induced by intracolonic instillation of TNBS (1 mg in 0.1 mL 50% ethanol) after which, animals were kept in a vertical position for 30 seconds to ensure that the solution remained in the colon. For the treatments, mice were orally gavaged with 200 μl of M. faecis MH23-3 at 1×10^9 cells/day or vehicle (sterile glycerol and phosphate salt solution) starting from Day 1 (i.e., 1 day before TNBS) to Day 5 for a total of 5 consecutive days (Days 1-5). The positive control Cyclosporin A was given at 75 mg/kg by oral gavage once daily from Day 1 (i.e., 1 day before TNBS) to Day 4 for a total of 4 consecutive days (Days 1-4). On the Day of TNBS challenge, vehicle, M. faecis MH-23.3 and Cyclosporine A were given at 2 hours before TNBS. Animals were sacrificed on Day 5; blood was collected from all animals by cardiac puncture. The colon tissue was also harvested and snap frozen with liquid nitrogen for cytokine measurement. On Day 5, the mice were euthanized by CO2 asphyxiation. Each colon was removed, rinsed, and then cut from 4 cm from the anus. The tissue sections were fixed in 10% formalin and kept in 70% ethanol for histopathology. […]

[1] = system: IL-8 secretion in the human gut epithelial HCT116 cell line; assay: IL-8 secretion ELISA in IL-1β treated HCT116 cells (NF-κB activation); format: cell-based; settings: HCT116 cells treated with IL-1β; cell free CS relative to the medium control
Procedure: For the ELISA assays, 1×10^4 cells/well of HCT116 cells were seeded in duplicate 96 well plates. HCT116 cells were treated with IL-1β (10 ng) and indole-3-carbinol (5 μM) or culture supernatant (10% v/v) as appropriate and incubated at 37° C. for 16 hours. Then, cell supernatants were collected and analysed using an IL-8 human uncoated ELISA Kit according to the manufacturer's instructions.

[2] = system: mild to moderate flares of ulcerative colitis; settings: cited from earlier work
T84 cells = assay: TEER recovery of barrier integrity after IFNγ (Maestro Pro system); format: cell-based; settings: IFNγ for 72 hours, then treatment; extract relative to YG/V control
Procedure: The ability of MH23 to promote recovery of barrier integrity was also assessed by using the Maestro Pro system. Briefly, T84 cells were grown in (DMEM/F12) supplemented with 10% heat-inactivated foetal bovine serum and 1% Penicillin-Streptomycin in T75 flasks at 37° C., 5% C02 until approximately 75% confluent. Cells were seeded at a density of 0.1×10^6 cells in a total of 0.2 mL/well in 96-well CytoView-Z plates and incubated at 37° C., 5% C02 in the Maestro Pro system (Axion BioSystems, Atlanta, GA, USA). Media was refreshed every three days. Once stabile TEER measurements had been established (approximately 100 h after seeding), cells were stimulated with recombinant human IFNγ (100 ng/mL; R&D systems, Minneapolis, MN, USA). At 72 h post-stimulation, cells were washed with dPBS (ThermoFisher Scientific, Waltham, MA, USA) and media was replaced with DMEM/F12 only, or DMEM/F12 supplemented with Pyrrolidine dithiocarbamate (PDTC; 50 μM), 1×YG/V media control or 1×MH23-3 bacterial culture supernatant extracts prepared using Amberlite XAD-7 resin as previously outlined. All conditions were analysed as quadruplicates. At 5 h post-treatment, TEER measurements were recorded, and the observed effect of treatment was presented as the percentage difference in TEER value compared to the control (untreated T84 cells). Statistical significance was determined by unpaired t-test.

[3] = system: IL-23 mediated activation of STAT3; assay: HEK-Blue IL-23 reporter cell line STAT3 inducible SEAP reporter assay; format: cell-based, human; settings: cell free culture supernatant (strains grown in TY medium); tofacitinib as inhibitor control
Procedure: To assess STAT3 suppressive activity, three independent colonies were inoculated and grown until early stationary phase. Then, each seed culture broth was used to inoculate two technical replicates each generating six technical replicates from three biological replicates. The technical replicates were grown until early stationary phase and then cell free culture supernatant was harvested as previously described (Giri et al., 2019). Culture supernatants were size fractionated by passing through a 3 kDa CENTRICON® column according to the manufacturer's (Merck Millipore) instructions.
STAT3 activity was assessed using the HEK Blue IL-23 cell line (Invivogen). Briefly, 50,000 cells per well were seeded in triplicate in a 96-well plate 24 hours prior to the start of the assay. Bacteria supernatant or sterile bacterial medium were mixed at a final concentration of 10%, 25%, or 50% v/v with recombinant human IL-23 (rhIL-23, R&D systems) at a final concentration of 5 ng/mL. This mixture was then added directly to the cells and incubated at 37° C. for 6 hours. […] STAT3 regulated SEAP reporter activity was assessed using Quanti Blue solution as recommended by the manufacturer (Invivogen). […] Cytotoxicity was assessed using MTT assay. […] Cytotoxicity was assessed by measuring absorbance at 540 nm as recommended by the manufacturer (Invitrogen, Thermo Fisher, Australia).

C57BL/6 female mice [4] = assay: Acute murine model of DSS-induced gut barrier dysfunction (3% DSS); format: in vivo, mouse
Procedure: (§1) M. faecis and F. prausnitzii strains were grown to early stationary phase in TY medium. The cell density of the individual cultures was calculated using a Helber Counting Chamber. To prepare the bacterial gavage solutions, individual cultures were centrifuged under a layer of sterile heavy mineral oil at 5,000 g for 10 minutes and the cell-free supernatant was then discarded. The cell pellets were washed in 1.5 mL of sterile anaerobic buffered diluent (38 mL/L each of salt solutions 2 & 3 (McSweeney et al., 2005), 1 mL/L of 0.1% (w/v) resazurin solution, 1 g/L L-cysteine) and then centrifuged again. Finally, the washed cell pellet was resuspended in half strength glycerol solution (15% v/v glycerol solution in anoxic buffered diluent) to a final concentration of 1×10^9 cells/mL, aliquoted and frozen at −80° C. until required. The viability of the cell preparations was confirmed by thawing a single aliquot and streaking on an agar plate. The identity and purity of the individual strain preparations was confirmed by whole genome sequencing.
(§2) Six-week-old C57BL/6 female mice purchased from Animal Resources Centres (Western Australia, Australia) were randomised and then co-housed for seven days prior to experimentation. To induce gut barrier dysfunction, mice were treated with 3% DSS ad libiteum in the drinking water for six days. Naïve age matched control mice were processed and received DSS free drinking water. All treatments started one day prior to provision of DSS and all mice were sacrificed two days after the final DSS treatment. For the treatments, mice were anesthetised with isofluorane and orally gavaged with 200 μl of bacterial preparations or vehicle control. Prednisone (2 mg/kg) was administered following anesthetisation by intraperitoneal injection. Body weights and stool consistency were recorded daily. Stool samples were collected daily. Following sacrifice, the colon, liver and spleen were collected for analysis. Blood was collected by cardiac puncture. In the therapeutic model, six-week-old C57BL/6 female mice purchased from Animal Resources Centres (Western Australia, Australia) were randomised and then co-housed for seven days prior to experimentation. To induce gut barrier dysfunction, mice were treated with 2.5% DSS ad libiteum in the drinking water for six days. Naïve age matched control mice were processed and received DSS free drinking water. All treatments started two days prior to completion of the DSS treatments and all mice were sacrificed five days after the final DSS treatment. For the treatments, mice were anesthetised with isofluorane and orally gavaged with 200 μl of bacterial preparations or vehicle control. Prednisone (2 mg/kg) was administered following anesthetisation by intraperitoneal injection. […]

C57BL/6 female mice [5] = assay: Therapeutic model of DSS induced murine colitis (2.5% DSS); format: in vivo, mouse; settings: 2.5% DSS therapeutic model
Procedure: as §1, §2

Q: For cyclosporine A, which TNBS-induced histological damage (male BALB/c mice) is on record?
A: Its TNBS-induced histological damage is “ameliorated”.

Q: For `OCc1c[nH]c2ccccc12` [indole-3-carbinol], which IL-8 secretion [1] is on record?
A: The IL-8 secretion was “prevented”.

Q: With `Nc1ccc(O)c(C(=O)O)c1` [Mesalmine] as the compound, how does the response rates [2] read?
A: The response rates was 40%-70%.

Q: For `S=C(S)N1CCCC1` [PDTC, Pyrrolidine dithiocarbamate], which “TEER after IFNγ treatment (restoration of barrier integrity)” value (T84 cells) is on record?
A: The value was “ameliorated”.

Q: With `C[C@@H]1CCN(C(=O)CC#N)C[C@@H]1N(C)c1ncnc2[nH]ccc12` [tofacitinib] as the compound, how does the “IL-23 mediated STAT3 activation (SEAP reporter activity)” value [3] read?
A: The value was “prevented; also recorded: inhibits”.

Q: With `C[C@]12C=CC(=O)C=C1CC[C@@H]1[C@@H]2C(=O)C[C@@]2(C)[C@H]1CC[C@]2(O)C(=O)CO` [prednisone] as the compound, how does the “disease pathology / histopathological score” value (C57BL/6 female mice [4]) read?
A: The value was “significant improvement”.

Q: And the epithelial injury (C57BL/6 female mice [4])?
A: The epithelial injury was “ameliorated”.

Q: And the inflammation score (C57BL/6 female mice [4])?
A: Its inflammation score is “ameliorated”.

Q: What about the DSS-induced weight loss (C57BL/6 female mice [4]; daily treatment) of the same compound?
A: Its DSS-induced weight loss is “exacerbated”.

Q: What about the epithelial injury (C57BL/6 female mice [5]) of the same compound?
A: Its epithelial injury is “ameliorated”.

Q: And the inflammation score (C57BL/6 female mice [5])?
A: The inflammation score was “ameliorated”.

Q: What about the “pathology / histopathological score” value (C57BL/6 female mice [5]) of the same compound?
A: Its value is “ameliorated”.

Q: And the endoscopic disease activity (C57BL/6 female mice [5]; relative to the vehicle treatment group)?
A: The endoscopic disease activity was “significant reduction”.
